Like-named read-outs stand apart in the source and are kept apart here.
What was measured:
HIV-1 (IIIB) = assay: Antiviral assay in MT-4 cells (HIV MT-4 antiviral assay); format: cell-based; details: HIV-1 (IIIB) in MT-4 cells, 5 days incubation
Procedure, shortened: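 MT-4 cells infected with HIV-1 IIIB (1:250 diluted stock) and exposed to 1:3 serially diluted compound in RPMI with 10% FBS. Viability read by CellTiter-Glo luminescence after 5 days at 37° C; mock-infected cells and 5 μM AZT as controls.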

uninfected MT-4 cells = assay: Cytotoxicity assay in MT-4 cells; format: cell-based, human; details: uninfected MT-4 cells, 5 days incubation
Procedure, shortened: (§1)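 Infected MT-4 cells (HIV-1 IIIB, fresh 1:250 dilution of concentrated stock) or mock-infected cells exposed to compounds for 5 days at 37 °C. Viability by CellTiter-Glo luminescence; 5 μM AZT positive control, no-drug negative control. Uninfected cells used for cytotoxicity, with 10 μM puromycin as base-level cytotoxicity control.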

pLai RLuc reporter virus = assay: microbe, parasite or virus in culture; format: cell-based, HIV
Procedure, shortened: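 MT-4 cells pre-infected 2 h at 37 °C with pLai RLuc virus, then exposed to 1:3 serial dilutions of compound in RPMI/10% FBS with or without 50% human serum for 72 h at 37 °C. Renilla luminescence read-out; serum shift = EC50(HS/CCM)/EC50(CCM).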

[1] = Cytotoxicity assay in MT-4 cells; format: cell-based, human; details: human, uninfected MT-4 cells, 5 days incubation; read-out: CC50
Procedure, shortened: as §1

[2] = read-out: Antiviral Serum Shift RLuc 50% HS, HS/CCM (RPMI media, 10% FBS, 50% HS, 1% P/S), 72-h incubation
[3] = read-out: Antiviral Serum Shift RLuc CCM, CCM (RPMI media, 10% FBS, 1% P/S), 72-h incubation
[4] = CCM (RPMI media, 10% FBS, 1% P/S), 72-h incubation, read-out: Antiviral Serum Shift RLuc CCM
[5] = HS/CCM (RPMI media, 10% FBS, 50% HS, 1% P/S), 72-h incubation, read-out: Antiviral Serum Shift RLuc 50% HS
[6] = Human immunodeficiency virus 1, 72 h, read-out: Antiviral Serum Shift RLuc CCM, CCM (RPMI media, 10% FBS, 1% P/S), 72-h incubation
[7] = Human immunodeficiency virus 1, 72 h, read-out: Antiviral Serum Shift RLuc 50% HS, HS/CCM (RPMI media, 10% FBS, 50% HS, 1% P/S), 72-h incubation

Work on `O=C(NCc1c(F)cc(F)cc1F)c1cn2c(c(O)c1=O)C(=O)N1CCCC(CF)C2C1` (single isomer, unassigned) [Example 194-2, 6-(fluoromethyl)-12-hydroxy-1,11-dioxo-N-(2,4,6-trifluorobenzyl)-1,4,5,6,7,11-hexahydro-3H-2,7-methanopyrido[1,2-a][1,4]diazonine-10-carboxamide] yielded an EC50 (HIV-1 (IIIB); read-out: EC50) of 1.5 nM, a CC50 (uninfected MT-4 cells) of 10500 nM and an EC50 (pLai RLuc reporter virus; [2]) of 2.99 nM. The EC50 (pLai RLuc reporter virus; [3]) was 0.378 nM.

`O=C(NCc1c(F)cc(F)cc1F)c1cn2c(c(O)c1=O)C(=O)N1CCCC(CF)C2C1` (single isomer, unassigned) [Example 194-3, 6-(fluoromethyl)-12-hydroxy-1,11-dioxo-N-(2,4,6-trifluorobenzyl)-1,4,5,6,7,11-hexahydro-3H-2,7-methanopyrido[1,2-a][1,4]diazonine-10-carboxamide] showed an EC50 (HIV-1 (IIIB); read-out: EC50) of 1.28 nM, a CC50 (uninfected MT-4 cells) of 11500 nM and an EC50 (pLai RLuc reporter virus; [2]) of 139 nM. For the same compound, the EC50 (pLai RLuc reporter virus; [3]) was 0.554 nM.

Compound “(3S,7S)-5-fluoro-12-hydroxy-3-methyl-1,11-dioxo-N-(2,4,6-trifluorobenzyl)-1,6,7,11-tetrahydro-3H-2,7-methanopyrido[1,2-a][1,4]diazonine-10-carboxamide [Example 118-2]” has an EC50 (HIV-1 (IIIB); read-out: EC50) of 1.17 nM, a CC50 (uninfected MT-4 cells) of 11600 nM and an EC50 (pLai RLuc reporter virus; [4]) of 0.249 nM. The EC50 (pLai RLuc reporter virus; [5]) was 0.507 nM.

Work on `O=C(NCc1ccc(F)cc1F)c1cn2c(c(O)c1=O)C(=O)N1C[C@@H]2CCC[C@@H]1CF` [Example 181, (3R,7S)—N-(2,4-difluorobenzyl)-3-(fluoromethyl)-12-hydroxy-1,11-dioxo-1,4,5,6,7,11-hexahydro-3H-2,7-methanopyrido[1,2-a][1,4]diazonine-10-carboxamide] yielded an EC50 (HIV-1 (IIIB); read-out: EC50) of 1.08 nM, a CC50 (uninfected MT-4 cells) of 9710 nM and an EC50 (pLai RLuc reporter virus; [2]) of 7.65 nM. It also gave an EC50 (pLai RLuc reporter virus; [3]) of 0.385 nM.

Compound `O=C(NCc1ccc(F)cc1F)c1cn2c(c(O)c1=O)C(=O)N1C[C@H](F)CC[C@H]2C1` (single isomer, unassigned) [Example 53-1] has an EC50 (HIV-1 (IIIB); read-out: EC50) of 2.13 nM, a CC50 (uninfected MT-4 cells) of 13200 nM and an EC50 (pLai RLuc reporter virus; [6]) of 0.541 nM. It also gave an EC50 (pLai RLuc reporter virus; [2]) of 6.13 nM.

With `O=C(NCc1ccc(F)cc1F)c1cn2c(c(O)c1=O)C(=O)N1CC2CCc2cc(F)c(F)cc21` (single isomer, unassigned) [Example 50-1] the EC50 (HIV-1 (IIIB)) was 1.39 nM, the CC50 (uninfected MT-4 cells) was > 13500 nM and the EC50 (pLai RLuc reporter virus; [7]) was 0.948 nM. It also gave an EC50 (pLai RLuc reporter virus; [6]) of 0.265 nM.

`O=C(NCc1c(F)cc(F)cc1F)c1cn2c(c(O)c1=O)C(=O)N1C[C@@H]2CCC[C@@H]1CF` [Example 180, (3R,7S)-3-(fluoromethyl)-12-hydroxy-1,11-dioxo-N-(2,4,6-trifluorobenzyl)-1,4,5,6,7,11-hexahydro-3H-2,7-methanopyrido[1,2-a][1,4]diazonine-10-carboxamide] showed an EC50 (HIV-1 (IIIB); read-out: EC50) of 1.21 nM, a CC50 (uninfected MT-4 cells) of 10400 nM and an EC50 (pLai RLuc reporter virus; [2]) of 13.5 nM. For the same compound, the EC50 (pLai RLuc reporter virus; [3]) was 0.32 nM.

“(3S,7S)-5-fluoro-12-hydroxy-3-methyl-1,11-dioxo-N-(2,4,6-trifluorobenzyl)-1,4,7,11-tetrahydro-3H-2,7-methanopyrido[1,2-a][1,4]diazonine-10-carboxamide [Example 118-1]” gave an EC50 (HIV-1 (IIIB); read-out: EC50) of 0.79 nM, a CC50 (uninfected MT-4 cells) of 11500 nM and an EC50 (pLai RLuc reporter virus; [4]) of 0.296 nM. It also gave an EC50 (pLai RLuc reporter virus; [5]) of 0.881 nM.

`O=C(NCc1ccc(F)cc1F)c1cn2c(c(O)c1=O)C(=O)N1CC2CCc2cc(F)c(F)cc21` (single isomer, unassigned) [Example 50-2] gave an EC50 (HIV-1 (IIIB)) of 32.5 nM and a CC50 (uninfected MT-4 cells) of 32300 nM.

`O=C(NCc1c(F)cc(F)cc1F)c1cn2c(c(O)c1=O)C(=O)N1CCCC(CF)C2C1` (single isomer, unassigned) [Example 194-4, 6-(fluoromethyl)-12-hydroxy-1,11-dioxo-N-(2,4,6-trifluorobenzyl)-1,4,5,6,7,11-hexahydro-3H-2,7-methanopyrido[1,2-a][1,4]diazonine-10-carboxamide] gave an EC50 (HIV-1 (IIIB); read-out: EC50) of 1.75 nM, a CC50 (uninfected MT-4 cells) of 11300 nM and an EC50 (pLai RLuc reporter virus; [2]) of 3.48 nM. It also gave an EC50 (pLai RLuc reporter virus; [3]) of 0.397 nM.

`O=C(NCc1ccc(F)cc1F)c1cn2c(c(O)c1=O)C(=O)N1CC2CCc2cc(F)ccc21` (single isomer, unassigned) [Example 55-2] showed an EC50 (HIV-1 (IIIB)) of 1.8 nM, a CC50 (uninfected MT-4 cells) of 7330 nM and an EC50 (pLai RLuc reporter virus; [7]) of 1.32 nM. For the same compound, the EC50 (pLai RLuc reporter virus; [6]) was 0.312 nM.

For `O=C(NCc1ccc(F)cc1F)c1cn2c(c(O)c1=O)C(=O)N1C[C@H](F)CC[C@H]2C1` (single isomer, unassigned) [Example 53-4], the EC50 (HIV-1 (IIIB); read-out: EC50) was 4.72 nM, the CC50 (uninfected MT-4 cells) was > 44400 nM and the EC50 (pLai RLuc reporter virus; [2]) was 18.3 nM. For the same compound, the EC50 (pLai RLuc reporter virus; [3]) was 0.696 nM.

For “(7R,13R)—N-(2,4-difluorobenzyl)-12-hydroxy-13-methyl-1,11-dioxo-1,4,5,6,7,11-hexahydro-3H-2,7-methanopyrido[1,2-a][1,4]diazonine-10-carboxamide [Example 7]”, the EC50 (HIV-1 (IIIB); read-out: EC50) was 19.9 nM and the CC50 (uninfected MT-4 cells) was 25400 nM.

Compound `O=C(NCc1ccc(F)cc1F)c1cn2c(c(O)c1=O)C(=O)N1CCc3ccccc3[C@@H]2C1` [Example 64-1, (13R)—N-(2,4-difluorobenzyl)-4-hydroxy-3,5-dioxo-3,5,8,13-tetrahydro-7H-6,13-methanobenzo[g]pyrido[1,2-a][1,4]diazonine-2-carboxamide] has a CC50 at 5 days [1] of 14800 nM, a CC50 (uninfected MT-4 cells) of 12300 nM and an EC50 (pLai RLuc reporter virus; [7]) of 3.31 nM. The EC50 (pLai RLuc reporter virus; [6]) was 0.319 nM.

In the case of `CC[C@]12CCCCN(C1)C(=O)c1c(O)c(=O)c(C(=O)NCc3ccc(F)cc3F)cn12` [Example 134-1, (7S)—N-(2,4-difluorobenzyl)-7-ethyl-12-hydroxy-1,11-dioxo-1,4,5,6,7,11-hexahydro-3H-27-methanopyrido[1,2-a][1,4]diazonine-10-carboxamide], the EC50 (HIV-1 (IIIB); read-out: EC50) is reported as 3.29 nM and the CC50 (uninfected MT-4 cells) is reported as 16200 nM.

In the case of `CC1CCCN2CC1n1cc(C(=O)NCc3ccc(F)cc3F)c(=O)c(O)c1C2=O` (stereo not shown) [Example 17-2b, N-(2,4-difluorobenzyl)-12-hydroxy-6-methyl-1,11-dioxo-1,4,5,6,7,11-hexahydro-3H-2,7-methanopyrido[1,2-a][1,4]diazonine-10-carboxamide], the EC50 (HIV-1 (IIIB); read-out: EC50) is reported as 1.2 nM, the CC50 (uninfected MT-4 cells) is reported as 11000 nM and the EC50 (pLai RLuc reporter virus; [2]) is reported as 101 nM. It also gave an EC50 (pLai RLuc reporter virus; [3]) of 0.31 nM.
